Reference: patent publication US11000491B2, “Amino-aryl-benzamide compounds and methods of use thereof” (HEPANOVA, INC., priority 2017, dated 2021)
Read-outs that look alike come from different tables or passages of the source.

What was measured:
Format in all cases: cell-based
[1] = system: SREBP-2; test: SREBP-2 expression in cultured primary human hepatocytes; details: procedure of Example 6, read-out: SREBP-2 mRNA inhibition (EC50)
In short: (§1)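 Primary human hepatocytes in culture exposed to a range of HPN-01 derivative concentrations; SREBP-1 and SREBP-2 mRNA expression then measured to assess inhibition.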

[2] = system: Huh7 cells; test: LD content in Huh7 cells pre-treated with insulin, Oil-Red-O staining, absorbance OD 540 nm; details: procedure of Example 3, read-out: LD content inhibition (EC50)
In short: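 Huh7 cells, mock-treated or pre-treated with 1 mM insulin, were then exposed to compound at the indicated amounts. Lipid droplets stained with Oil Red O and quantified by absorbance at OD 540 nm.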

[3] = system: SREBP-1; test: SREBP-1 expression in cultured primary human hepatocytes; details: procedure of Example 6, read-out: SREBP-1 mRNA inhibition (EC50)
In short: as §1

[4] = Homo sapiens, Huh-7, Huh7 cells

NC(=O)c1cc(-c2ccc(Cl)cc2)cc(N2CCN(S(N)(=O)=O)CC2)c1N [HPN-01427, 4-amino-4′-chloro-5-(4-sulfamoylpiperazin-1-yl)-[1,1′-biphenyl]-3-carboxamide]
EC50 ([1]; Homo sapiens, Hepatocyte): 3.83 µM | EC50 [2, 4]: 1.11 µM | EC50 ([3]; Homo sapiens, Hepatocyte): 3.32 µM

NC(=O)c1cc(-c2ccc(Cl)cc2)cc(-c2ccc(S(N)(=O)=O)cn2)c1N [HPN-01428, 4-amino-4′-chloro-5-(5-sulfamoylpyridin-2-yl)-[1,1′-biphenyl]-3-carboxamide]
EC50 ([1]; Homo sapiens, Hepatocyte): 18.8 µM | EC50 [2, 4]: 1.14 µM | EC50 ([3]; Homo sapiens, Hepatocyte): 5.65 µM

NC(=O)c1cc(-c2ccc(Cl)cc2)cc(-c2ccc(NC(=O)Nc3cccnc3)cc2)c1N [HPN-01429, 4′-amino-4-chloro-4″-(3-(pyridin-3-yl)ureido)-[1,1′:3′,1″-terphenyl]-5′-carboxamide]
EC50 ([1]; Homo sapiens, Hepatocyte): 3.98 µM | EC50 [2, 4]: 0.14 µM | EC50 ([3]; Homo sapiens, Hepatocyte): 6.69 µM

CC(C)NC(=O)Nc1ccc(-c2cc(-c3ccc(Cl)cc3)cc(C(N)=O)c2N)cc1 [HPN-01430, 4′-amino-4-chloro-4″-(3-isopropylureido)-[1,1′:3′,1″-terphenyl]-5′-carboxamide]
EC50 ([1]; Homo sapiens, Hepatocyte): 4.37 µM | EC50 [2, 4]: 5.36 µM | EC50 ([3]; Homo sapiens, Hepatocyte): 1.88 µM

CC(=O)Nc1c(C(N)=O)cc(-c2ccc(Cl)cc2)cc1-c1ccc(S(N)(=O)=O)cc1 [HPN-01501, 4′-acetamido-4-chloro-4″-sulfamoyl-[1,1′:3′,1″-terphenyl]-5′-carboxamide]
EC50 ([1]; Homo sapiens, Hepatocyte): 8.55 µM | EC50 [2, 4]: 1.67 µM | EC50 ([3]; Homo sapiens, Hepatocyte): 5.04 µM

NC(=O)c1cc(-c2ccc(Cl)cc2)cc(-c2ccc(S(N)(=O)=O)cc2)c1NC(=O)CO [HPN-01502, 4-chloro-4′-(2-hydroxyacetamido)-4″-sulfamoyl-[1,1′:3′,1″-terphenyl]-5′-carboxamide]
EC50 ([1]; Homo sapiens, Hepatocyte): 2.3 µM | EC50 [2, 4]: 0.79 µM | EC50 ([3]; Homo sapiens, Hepatocyte): 1.65 µM

NC(=O)c1cc(-c2ccc(Cl)cc2)cc(-c2ccc(S(N)(=O)=O)cc2)c1NC(=O)C1CC1 [HPN-01503, 4-chloro-4′-(cyclopropanecarboxamido)-4″-sulfamoyl-[1,1′:3′,1″-terphenyl]-5′-carboxamide]
EC50 ([1]; Homo sapiens, Hepatocyte): 6.48 µM | EC50 [2, 4]: 0.7 µM | EC50 ([3]; Homo sapiens, Hepatocyte): 3.94 µM

NCC(=O)Nc1c(C(N)=O)cc(-c2ccc(Cl)cc2)cc1-c1ccc(S(N)(=O)=O)cc1 [HPN-01504, 4′-(2-aminoacetamido)-4-chloro-4″-sulfamoyl-[1,1′:3′,1″-terphenyl]-5′-carboxamide]
EC50 ([1]; Homo sapiens, Hepatocyte): 1.11 µM | EC50 [2, 4]: 0.46 µM | EC50 ([3]; Homo sapiens, Hepatocyte): 0.73 µM

NC(=O)Nc1ccc(-c2cc(-c3ccc(Cl)cc3)cc(C(N)=O)c2NC(=O)CO)cc1 [HPN-01506, 4-chloro-4′-(2-hydroxyacetamido)-4″-ureido-[1,1′:3′,1″-terphenyl]-5′-carboxamide]
EC50 ([1]; Homo sapiens, Hepatocyte): 17.1 µM | EC50 [2, 4]: 6.48 µM | EC50 ([3]; Homo sapiens, Hepatocyte): 7.31 µM

NC(=O)c1cc(-c2ccc(Br)cc2)cc(-c2ccc(S(N)(=O)=O)cc2)c1NC(=O)CCO [HPN-01513, 4-bromo-4′-(3-hydroxypropanamido)-4″-sulfamoyl-[1, 1′:3′,1″-terphenyl]-5′-carboxamide]
EC50 ([1]; Homo sapiens, Hepatocyte): 2.88 µM | EC50 [2, 4]: 0.68 µM | EC50 ([3]; Homo sapiens, Hepatocyte): 1.63 µM

NCCC(=O)Nc1c(C(N)=O)cc(-c2ccc(Br)cc2)cc1-c1ccc(S(N)(=O)=O)cc1 [HPN-01514, 4′-(3-aminopropanamido)-4-bromo-4″-sulfamoyl-[1,1′:3′,1″-terphenyl]-5′-carboxamide]
EC50 ([1]; Homo sapiens, Hepatocyte): 5.1 µM | EC50 [2, 4]: 1.15 µM | EC50 ([3]; Homo sapiens, Hepatocyte): 2.83 µM

NC(=O)c1cc(-c2ccc(Cl)cc2)cc(-c2ccc(S(N)(=O)=O)cc2)c1NC(=O)CCO [HPN-01516, 4-chloro-4′-(3-hydroxypropanamido)-4″-sulfamoyl-[1, 1′:3′,1″-terphenyl]-5′-carboxamide]
EC50 ([1]; Homo sapiens, Hepatocyte): 2.07 µM | EC50 [2, 4]: 1.1 µM | EC50 ([3]; Homo sapiens, Hepatocyte): 1.91 µM

NCCC(=O)Nc1c(C(N)=O)cc(-c2ccc(Cl)cc2)cc1-c1ccc(S(N)(=O)=O)cc1 [HPN-01517, 4′-(3-aminopropanamido)-4-chloro-4″-sulfamoyl-[1, 1′:3′,1″-terphenyl]-5′-carboxamide]
EC50 [1]: 2.94 µM | EC50 [2, 4]: 0.48 µM | EC50 [3]: 1.96 µM

CCCC(=O)Nc1c(C(N)=O)cc(-c2ccc(Cl)cc2)cc1-c1ccc(NC(N)=O)cc1 [HPN-01519, 4′-butyramido-4-chloro-4″-ureido-[1,1′:3′,1″-terphenyl]-5′-carboxamide]
EC50 ([1]; Homo sapiens, Hepatocyte): 2.75 µM | EC50 [2, 4]: 0.81 µM | EC50 ([3]; Homo sapiens, Hepatocyte): 1.51 µM

NC(=O)Nc1ccc(-c2cc(-c3ccc(Cl)cc3)cc(C(N)=O)c2NC(=O)CCO)cc1 [HPN-01520, 4-chloro-4′-(3-hydroxypropanamido)-4″-ureido-[1,1′:3′,1″-terphenyl]-5′-carboxamide]
EC50 ([1]; Homo sapiens, Hepatocyte): 4.45 µM | EC50 [2, 4]: 2.51 µM | EC50 ([3]; Homo sapiens, Hepatocyte): 3.01 µM

NC(=O)c1cc(-c2ccc(Br)cc2)cc(-c2ccc(S(N)(=O)=O)cc2)c1NC(=O)C1CC1 [HPN-01525, 4-bromo-4′-(cyclopropanecarboxamido)-4″-sulfamoyl-[1,1′:3′,1″-terphenyl]-5′-carboxamide]
EC50 ([1]; Homo sapiens, Hepatocyte): 10 µM | EC50 [2, 4]: 1.45 µM | EC50 ([3]; Homo sapiens, Hepatocyte): 5.61 µM

NCCC(=O)Oc1c(C(N)=O)cc(-c2ccc(Br)cc2)cc1-c1ccc(NC(N)=O)cc1 [HPN-01526, 4-bromo-5′-carbamoyl-4″-ureido-[1,1′:3′,1″-terphenyl]-4′-yl 3-aminopropanoate]
EC50 ([1]; Homo sapiens, Hepatocyte): 3.83 µM | EC50 [2, 4]: 1.15 µM | EC50 ([3]; Homo sapiens, Hepatocyte): 1.63 µM

NCC(=O)Nc1c(C(N)=O)cc(-c2ccc(Br)cc2)cc1-c1ccc(S(N)(=O)=O)cc1 [HPN-01527, 4′-(2-aminoacetamido)-4-bromo-4″-sulfamoyl-[1,1′:3′,1″-terphenyl]-5′-carboxamide]
EC50 ([1]; Homo sapiens, Hepatocyte): 5.69 µM | EC50 [2, 4]: 2.6 µM | EC50 ([3]; Homo sapiens, Hepatocyte): 5.25 µM

NC(=O)c1cc(-c2ccc(Cl)cc2)cc(-c2ccc(S(N)(=O)=O)cc2)c1NC(=O)c1cccnc1 [HPN-01529, N-(5′-carbamoyl-4-chloro-4″-sulfamoyl-[1,1′:3′,1″-terphenyl]-4′-yl)nicotinamide]
EC50 ([1]; Homo sapiens, Hepatocyte): 18.8 µM | EC50 [2, 4]: 1.67 µM | EC50 ([3]; Homo sapiens, Hepatocyte): 3.09 µM

NCCC(=O)Nc1c(C(N)=O)cc(-c2ccc(Cl)cc2)cc1-c1ccc(S(N)(=O)=O)cc1 [HPN-01530, 4′-(3-aminopropanamido)-4-chloro-4″-sulfamoyl-[1,1′:3′,1″-terphenyl]-5′-carboxamide]
EC50 [1]: 9.4 µM | EC50 ([2]; Huh7 cells): 0.46 µM | EC50 [3]: 3.94 µM

NC(=O)c1cc(-c2ccc(Cl)cc2)cc(-c2ccc(S(N)(=O)=O)cc2)c1NCCO [HPN-01531, 4-chloro-4′-((2-hydroxyethyl)amino)-4″-sulfamoyl-[1,1′:3′,1″-terphenyl]-5′-carboxamide]
EC50 ([1]; Homo sapiens, Hepatocyte): 5.71 µM | EC50 [2, 4]: 6.48 µM | EC50 ([3]; Homo sapiens, Hepatocyte): 3.15 µM

NC(=O)c1cc(-c2ccc(Cl)cc2)cc(-c2ccc(S(N)(=O)=O)cc2)c1NCc1cccc(Cl)c1 [HPN-01532, 4-chloro-4′-((3-chlorobenzyl)amino)-4″-sulfamoyl-[1,1′:3′,1″-terphenyl]-5′-carboxamide]
EC50 ([1]; Homo sapiens, Hepatocyte): 8.6 µM | EC50 [2, 4]: 1.15 µM | EC50 ([3]; Homo sapiens, Hepatocyte): 2.69 µM

CCCCNc1c(C(N)=O)cc(-c2ccc(Cl)cc2)cc1-c1ccc(S(N)(=O)=O)cc1 [HPN-01533, 4′-(butylamino)-4-chloro-4″-sulfamoyl-[1,1′:3′,1″-terphenyl]-5′-carboxamide]
EC50 ([1]; Homo sapiens, Hepatocyte): 11.7 µM | EC50 [2, 4]: 0.48 µM | EC50 ([3]; Homo sapiens, Hepatocyte): 2.83 µM

NC(=O)c1cc(-c2ccc(Cl)cc2)cc(-c2ccc(S(N)(=O)=O)cc2)c1NCCc1ccccc1 [HPN-01534, 4-chloro-4′-(phenethylamino)-4″-sulfamoyl-[1,1′:3′,1″-terphenyl]-5′-carboxamide]
EC50 ([1]; Homo sapiens, Hepatocyte): 6.79 µM | EC50 [2, 4]: 1.11 µM | EC50 ([3]; Homo sapiens, Hepatocyte): 2.92 µM

CNC(=O)c1cc(-c2ccc(Br)cc2)cc(-c2ccc(S(N)(=O)=O)cc2)c1N [HPN-01602, 4′-amino-4-bromo-N-methyl-4″-sulfamoyl-[1,1′:3′,1″-terphenyl]-5′-carboxamide]
EC50 ([1]; Homo sapiens, Hepatocyte): 4.73 µM | EC50 [2, 4]: 2.32 µM | EC50 ([3]; Homo sapiens, Hepatocyte): 3.32 µM

CCCNC(=O)c1cc(-c2ccc(Cl)cc2)cc(-c2ccc(S(N)(=O)=O)cc2)c1N [HPN-01603, 4′-amino-4-chloro-N-propyl-4″-sulfamoyl-[1,1′:3′,1″-terphenyl]-5′-carboxamide]
EC50 ([1]; Homo sapiens, Hepatocyte): 9.4 µM | EC50 [2, 4]: 2.39 µM | EC50 ([3]; Homo sapiens, Hepatocyte): 7.22 µM

CCCNC(=O)c1cc(-c2ccc(Br)cc2)cc(-c2ccc(S(N)(=O)=O)cc2)c1N [HPN-01604, 4′-amino-4-bromo-N-propyl-4″-sulfamoyl-[1, 1′:3′,1″-terphenyl]-5′-carboxamide]
EC50 ([1]; Homo sapiens, Hepatocyte): 5.71 µM | EC50 [2, 4]: 1.14 µM | EC50 ([3]; Homo sapiens, Hepatocyte): 1.95 µM

Nc1c(C(=O)NC2CC2)cc(-c2ccc(Cl)cc2)cc1-c1ccc(S(N)(=O)=O)cc1 [HPN-01605, 4′-amino-4-chloro-N-cyclopropyl-4″-sulfamoyl-[1,1′:3′,1″-terphenyl]-5′-carboxamide]
EC50 ([1]; Homo sapiens, Hepatocyte): 2.35 µM | EC50 [2, 4]: 0.69 µM | EC50 ([3]; Homo sapiens, Hepatocyte): 1.78 µM

Nc1c(C(=O)NC2CC2)cc(-c2ccc(Br)cc2)cc1-c1ccc(S(N)(=O)=O)cc1 [HPN-01606, 4′-amino-4-bromo-N-cyclopropyl-4″-sulfamoyl-[1,1′:3′,1″-terphenyl]-5′-carboxamide]
EC50 ([1]; Homo sapiens, Hepatocyte): 2.75 µM | EC50 [2, 4]: 0.14 µM | EC50 ([3]; Homo sapiens, Hepatocyte): 1.13 µM

Nc1c(C(=O)NCCO)cc(-c2ccc(Cl)cc2)cc1-c1ccc(S(N)(=O)=O)cc1 [HPN-01607, 4′-amino-4-chloro-N-(2-hydroxyethyl)-4″-sulfamoyl-[1,1′:3′,1″-terphenyl]-5′-carboxamide]
EC50 ([1]; Homo sapiens, Hepatocyte): 12.5 µM | EC50 [2, 4]: 3.05 µM | EC50 ([3]; Homo sapiens, Hepatocyte): 6.73 µM

Nc1c(C(=O)NCCO)cc(-c2ccc(Br)cc2)cc1-c1ccc(S(N)(=O)=O)cc1 [HPN-01608, 4′-amino-4-bromo-N-(2-hydroxyethyl)-4″-sulfamoyl-[1,1′:3′,1″-terphenyl]-5′-carboxamide]
EC50 ([1]; Homo sapiens, Hepatocyte): 4.31 µM | EC50 [2, 4]: 1.2 µM | EC50 ([3]; Homo sapiens, Hepatocyte): 2.39 µM
